The results in this text go back to patent US10150755B2, “ASK1 inhibitor compounds and uses thereof” (Seal Rock Therapeutics, Inc., priority 2017, dated 2018).

Molecules are shown by their SMILES. pIC50: −log10 of the molar value.

Chain of ASK1 (Q99683 649-946 limits assumed): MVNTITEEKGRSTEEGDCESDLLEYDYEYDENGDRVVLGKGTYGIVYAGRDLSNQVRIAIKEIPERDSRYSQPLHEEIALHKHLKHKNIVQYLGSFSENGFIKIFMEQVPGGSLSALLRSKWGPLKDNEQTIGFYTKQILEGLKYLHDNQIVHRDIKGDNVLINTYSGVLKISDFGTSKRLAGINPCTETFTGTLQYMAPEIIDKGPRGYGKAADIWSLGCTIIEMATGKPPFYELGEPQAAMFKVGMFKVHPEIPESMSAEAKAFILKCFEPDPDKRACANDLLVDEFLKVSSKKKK

The test concerns the target ASK1 (Homo sapiens (Human), UniProt Q99683). Briefly: ASK1 Kinase Assay (Promega ASK1 Kinase Enzyme System, ADP-Glo). In kind it is biochemical. As to conditions: enzyme 50 nM, ATP 10 μM. As to the method: The ASK1 enzymatic assay was run following Promega ASK1 Kinase Enzyme System (Cat #V3881). The kit provides the protocol, enzymes and all reagents necessary to run an assay. Firstly, the compounds, enzyme, substrate and ATP were diluted in provided assay buffer. The final concentration of the enzyme was 50 nM, substrate (Myelin basic protein) 1 μg/ml and ATP 10 μM. The compound and the enzyme were pre-incubated in a 384 well white solid bottom plate (Greiner, Cat#784075) for 10 minutes. After incubation, the substrate and ATP were added and incubated for further 60 minutes. After 60 minutes, ADP-Glo™ was added and plate was incubated for another 40 minutes. After 40 minutes, Kinase Detection Reagent was added and the plate was incubated for 45 minutes. After 45 minutes, plate was read on Perkin Elmer EnVision using luminescence read (0.5 seconds/well).
`O=C(c1cc2c(cc1Cl)C(=O)N(c1cccc(-c3nncn3C3CC3)n1)C2)N1CCOCC1` [Compound 26, 6-chloro-2-(6-(4-cyclopropyl-4H-1,2,4-triazol-3-yl)pyridin-2-yl)-5-(morpholine-4-carbonyl)isoindolin-1-one] had a pIC50 greater than 6.70.
In the case of `O=C1c2ccc(-c3cc[nH]n3)cc2CN1c1cccc(-c2nncn2C2CC2)n1` [Compound 28, 2-(6-(4-cyclopropyl-4H-1,2,4-triazol-3-yl)pyridin-2-yl)-5-(1H-pyrazol-3-yl)isoindolin-1-one] it was greater than 6.70; in that of `Cn1nccc1-c1ccc2c(c1)CN(c1cccc(-c3nncn3C3CC3)n1)C2=O` [Compound 29, 2-(6-(4-cyclopropyl-4H-1,2,4-triazol-3-yl)pyridin-2-yl)-5-(1-methyl-1H-pyrazol-5-yl)isoindolin-1-one], greater than 6.70; in that of `Cn1cnc(-c2ccc3c(c2)CN(c2cccc(-c4nncn4C4CC4)n2)C3=O)c1` [Compound 30, 2-(6-(4-cyclopropyl-4H-1,2,4-triazol-3-yl)pyridin-2-yl)-5-(1-methyl-1H-imidazol-4-yl)isoindolin-1-one], greater than 6.70.
The result for `Nc1ccc2c(c1)CN(c1cccc(-c3nncn3C3CC3)n1)C2=O` [Compound 31, 5-amino-2-(6-(4-cyclopropyl-4H-1,2,4-triazol-3-yl)pyridin-2-yl)isoindolin-1-one] reads greater than 6.70; that for `O=C1c2ccc(NC(=O)C3(c4ccccc4)CC3)cc2CN1c1cccc(-c2nncn2C2CC2)n1` [Compound 33, N-(2-(6-(4-Cyclopropyl-4H-1,2,4-triazol-3-yl)pyridin-2-yl)-1-oxoisoindolin-5-yl)-1-phenylcyclopropane-1-carboxamide], 6.00 to 6.70; that for `CCNc1ccc2c(c1)CN(c1cccc(-c3nncn3C3CC3)n1)C2=O` [Compound 35, 2-(6-(4-cyclopropyl-4H-1,2,4-triazol-3-yl)pyridin-2-yl)-5-(ethylamino)isoindolin-1-one], greater than 6.70.
In the case of `Cn1cncc1-c1ccc2c(c1)C(=O)N(c1cccc(-c3nncn3C3CC3)n1)C2` [Compound 36, 2-(6-(4-cyclopropyl-4H-1,2,4-triazol-3-yl)pyridin-2-yl)-6-(1-methyl-1H-imidazol-5-yl)isoindolin-1-one] it was greater than 6.70; in that of `O=C1c2cc(-n3ccnc3)ccc2CN1c1cccc(-c2nncn2C2CC2)n1` [Compound 37, 2-(6-(4-cyclopropyl-4H-1,2,4-triazol-3-yl)pyridin-2-yl)-6-(1H-imidazol-1-yl)isoindolin-1-one], greater than 6.70.
Compound `O=C1c2cc(-n3cnc4ccccc43)ccc2CN1c1cccc(-c2nncn2C2CC2)n1` [Compound 38, 6-(1H-Benzo[d]imidazol-1-yl)-2-(6-(4-cyclopropyl-4H-1,2,4-triazol-3-yl)pyridin-2-yl)isoindolin-1-one] showed a pIC50 greater than 6.70.
In the case of `Cn1ccc(-c2ccc3c(c2)C(=O)N(c2cccc(-c4nncn4C4CC4)n2)C3)n1` [Compound 39, 2-(6-(4-cyclopropyl-4H-1,2,4-triazol-3-yl)pyridin-2-yl)-6-(1-methyl-1H-pyrazol-3-yl)isoindolin-1-one] it was greater than 6.70; in that of `Cc1ccc(-c2ccc3c(c2)C(=O)N(c2cccc(-c4nncn4C4CC4)n2)C3)cn1` [Compound 42, 2-(6-(4-cyclopropyl-4H-1,2,4-triazol-3-yl)pyridin-2-yl)-6-(6-methylpyridin-3-yl)isoindolin-1-one], greater than 6.70.
In the case of `COc1ccc(-c2ccc3c(c2)C(=O)N(c2cccc(-c4nncn4C4CC4)n2)C3)cn1` [Compound 45, 2-(6-(4-cyclopropyl-4H-1,2,4-triazol-3-yl)pyridin-2-yl)-6-(6-methoxypyridin-3-yl)isoindolin-1-one] it was greater than 6.70; in that of `O=C1c2cc(-c3cnn(C4CC4)c3)ccc2CN1c1cccc(-c2nncn2C2CC2)n1` [Compound 47, 6-(1-cyclopropyl-1H-pyrazol-4-yl)-2-(6-(4-cyclopropyl-4H-1,2,4-triazol-3-yl)pyridin-2-yl)isoindolin-1-one], greater than 6.70; in that of `O=C1c2cc(-c3cnccc3F)ccc2CN1c1cccc(-c2nncn2C2CC2)n1` [Compound 48, 2-(6-(4-cyclopropyl-4H-1,2,4-triazol-3-yl)pyridin-2-yl)-6-(4-fluoropyridin-3-yl)isoindolin-1-one], greater than 6.70.
Take `O=C1c2cc(-c3cnccc3Cl)ccc2CN1c1cccc(-c2nncn2C2CC2)n1` [Compound 49, 6-(4-chloropyridin-3-yl)-2-(6-(4-cyclopropyl-4H-1,2,4-triazol-3-yl)pyridin-2-yl)isoindolin-1-one]: the pIC50 is greater than 6.70.
In the case of `O=C1c2cc(-c3ccncc3)ccc2CN1c1cccc(-c2nncn2C2CC2)n1` [Compound 50, 2-(6-(4-cyclopropyl-4H-1,2,4-triazol-3-yl)pyridin-2-yl)-6-(pyridin-4-yl)isoindolin-1-one] it was greater than 6.70.
In the case of `Cc1ncc(-c2ccc3c(c2)C(=O)N(c2cccc(-c4nncn4C4CC4)n2)C3)s1` [Compound 51, 2-(6-(4-cyclopropyl-4H-1,2,4-triazol-3-yl)pyridin-2-yl)-6-(2-methylthiazol-5-yl)isoindolin-1-one] it was greater than 6.70.
In the case of `Cc1ncccc1-c1ccc2c(c1)C(=O)N(c1cccc(-c3nncn3C3CC3)n1)C2` [Compound 52, 2-(6-(4-cyclopropyl-4H-1,2,4-triazol-3-yl)pyridin-2-yl)-6-(2-methylpyridin-3-yl)isoindolin-1-one] it was greater than 6.70; in that of `O=C1c2cc(-c3cccnc3F)ccc2CN1c1cccc(-c2nncn2C2CC2)n1` [Compound 53, 2-(6-(4-cyclopropyl-4H-1,2,4-triazol-3-yl)pyridin-2-yl)-6-(2-fluoropyridin-3-yl)isoindolin-1-one], greater than 6.70.
In the case of `Cc1cncc(-c2ccc3c(c2)C(=O)N(c2cccc(-c4nncn4C4CC4)n2)C3)c1` [Compound 54, 2-(6-(4-cyclopropyl-4H-1,2,4-triazol-3-yl)pyridin-2-yl)-6-(5-methylpyridin-3-yl)isoindolin-1-one], the pIC50 was greater than 6.70.
The result for `O=C1c2cc(-c3cncc(F)c3)ccc2CN1c1cccc(-c2nncn2C2CC2)n1` [Compound 55, 2-(6-(4-cyclopropyl-4H-1,2,4-triazol-3-yl)pyridin-2-yl)-6-(5-fluoropyridin-3-yl)isoindolin-1-one] reads 6.00 to 6.70; that for `O=C1c2cc(-c3cnc(C4CC4)nc3)ccc2CN1c1cccc(-c2nncn2C2CC2)n1` [Compound 56, 2-(6-(4-cyclopropyl-4H-1,2,4-triazol-3-yl)pyridin-2-yl)-6-(2-cyclopropylpyrimidin-5-yl)isoindolin-1-one], greater than 6.70; that for `Cn1ccnc1-c1ccc2c(c1)C(=O)N(c1cccc(-c3nncn3C3CC3)n1)C2` [Compound 57, 2-(6-(4-cyclopropyl-4H-1,2,4-triazol-3-yl)pyridin-2-yl)-6-(1-methyl-1H-imidazol-2-yl)isoindolin-1-one], greater than 6.70.
The result for `O=C1c2cc(-c3ccccn3)ccc2CN1c1cccc(-c2nncn2C2CC2)n1` [Compound 58, 2-(6-(4-cyclopropyl-4H-1,2,4-triazol-3-yl)pyridin-2-yl)-6-(pyridin-2-yl)isoindolin-1-one] reads greater than 6.70; that for `O=C1c2cc(-c3cccnn3)ccc2CN1c1cccc(-c2nncn2C2CC2)n1` [Compound 59, 2-(6-(4-cyclopropyl-4H-1,2,4-triazol-3-yl)pyridin-2-yl)-6-(pyridazin-3-yl)isoindolin-1-one], greater than 6.70; that for `O=C1c2cc(-c3ccc(C4CC4)nn3)ccc2CN1c1cccc(-c2nncn2C2CC2)n1` [Compound 61, 2-(6-(4-cyclopropyl-4H-1,2,4-triazol-3-yl)pyridin-2-yl)-6-(6-cyclopropylpyridazin-3-yl)isoindolin-1-one], greater than 6.70.
In the case of `O=C1c2cc(-n3cc(C4CC4)nn3)ccc2CN1c1cccc(-c2nncn2C2CC2)n1` [Compound 62, 6-(4-cyclopropyl-1H-1,2,3-triazol-1-yl)-2-(6-(4-cyclopropyl-4H-1,2,4-triazol-3-yl)pyridin-2-yl)isoindolin-1-one] it was greater than 6.70; in that of `O=C1c2cc(-c3cccnc3)c(F)cc2CN1c1cccc(-c2nncn2C2CC2)n1` [Compound 63, 2-(6-(4-cyclopropyl-4H-1,2,4-triazol-3-yl)pyridin-2-yl)-5-fluoro-6-(pyridin-3-yl)isoindolin-1-one], greater than 6.70; in that of `O=C1c2cc(-c3cccnc3)c(Cl)cc2CN1c1cccc(-c2nncn2C2CC2)n1` [Compound 65, 5-chloro-2-(6-(4-cyclopropyl-4H-1,2,4-triazol-3-yl)pyridin-2-yl)-6-(pyridin-3-yl)isoindolin-1-one], greater than 6.70.
`CN(C)c1cc2c(cc1-c1cccnc1)C(=O)N(c1cccc(-c3nncn3C3CC3)n1)C2` [Compound 67, 2-(6-(4-cyclopropyl-4H-1,2,4-triazol-3-yl)pyridin-2-yl)-5-(dimethylamino)-6-(pyridin-3-yl)isoindolin-1-one] showed a pIC50 greater than 6.70.
In the case of `COC(=O)c1ccc2c(c1)C(=O)N(c1cccc(-c3nncn3C3CC3)n1)C2` [Compound 72, methyl 2-(6-(4-cyclopropyl-4H-1,2,4-triazol-3-yl)pyridin-2-yl)-3-oxoisoindoline-5-carboxylate] it was greater than 6.70; in that of `O=C(O)c1ccc2c(c1)C(=O)N(c1cccc(-c3nncn3C3CC3)n1)C2` [Compound 73, 2-(6-(4-cyclopropyl-4H-1,2,4-triazol-3-yl)pyridin-2-yl)-3-oxoisoindoline-5-carboxylic acid], greater than 6.70.
